In EPA's ToxRefDB 2:

How the values were obtained:
rat [1] = conditions: Subchronic oral toxicity in rodents, sprague dawley, Feed, dose end: 13 week, group: systemic, systemic / in life observation / body weight / body weight + systemic / in life observation / body weight / body weight gain + systemic / …
dog [2] = conditions: Subchronic oral toxicity in nonrodent, beagle, Capsule, dose end: 90 day, group: systemic
dog [3] = conditions: Chronic toxicity; beagle; Oral; Capsule; dose end: 12 month; group: systemic; systemic / pathology microscopic / urinary bladder / calculus + systemic / pathology microscopic / urinary bladder / crystals + systemic / …
rat [4] = conditions: Combined chronic toxicity/carcinogenicity; sprague dawley; Oral; Feed; dose end: 22 month; group: systemic; systemic / clinical chemistry / albumin / albumin + systemic / pathology microscopic / heart / mineralization + systemic / pathology …
mouse [5] = conditions: Carcinogenicity; cd1; Oral; Feed; dose end: 18 month; group: systemic; systemic / pathology gross / urinary bladder / calculus + systemic / pathology microscopic / urinary bladder / hyperplasia + systemic / …
mouse [6] = conditions: Subchronic oral toxicity in rodents, b6c3f1, Feed, dose end: 13 week, group: systemic
rat [7] = conditions: Subchronic oral toxicity in rodents, fischer, Feed, dose end: 13 week, group: systemic, systemic / in life observation / body weight / body weight + systemic / in life observation / body weight / body weight gain + systemic / in…
rat [8] = conditions: Prenatal developmental toxicity study; sprague dawley; Oral; Gavage/Intubation; dose end: 20 GD; group: maternal; systemic / in life observation / body weight / body weight gain
rat [9] = conditions: Combined chronic toxicity/carcinogenicity, fischer, Oral, Water, dose end: 24 month, group: systemic
rat [10] = conditions: Developmental neurotoxicity study; sprague dawley; Oral; Gavage/Intubation; dose end: 77 PND; group: cannot be grouped; systemic / in life observation / body weight / body weight
rat [11] = conditions: Developmental neurotoxicity study, fischer, Oral, Gavage/Intubation, dose end: 22 PND, group: cannot be grouped
mouse [12] = conditions: Prenatal developmental toxicity study, cd1, Oral, Gavage/Intubation, dose end: 17 GD
rat [13] = conditions: Neurotoxicity screening battery; long evans; Injection; Intraperitoneal; dose end: 13 week; group: cannot be grouped; systemic / in life observation / clinical signs / abnormal gait + systemic / in life observation / clinical signs / irritability + systemic…
rat [14] = conditions: Subchronic oral toxicity in rodents, fischer, Water, dose end: 93 day
rat [15] = conditions: Developmental neurotoxicity study; wistar; Oral; Gavage/Intubation; dose end: 91 PND; group: cannot be grouped; systemic / in life observation / body weight / body weight + systemic / in life observation / body weight / body weight gain + systemic / in…
mouse [16] = conditions: Multigenerational reproductive toxicity study, cd1, Oral, Water, dose end: 2 generation
[17] = systemic / pathology microscopic / urinary bladder / calculus + systemic / pathology microscopic / urinary bladder / hemorrhage + systemic…
[18] = systemic / organ weight / liver / relative to body weight + systemic / pathology microscopic / liver / pigmentation
[19] = systemic / pathology microscopic / testes / mesothelioma nos + systemic / pathology microscopic / brain / astrocytoma nos + systemic / …
[20] = systemic / in life observation / body weight / offspring (pup) weight + reproductive / reproductive performance / pregnancy index / …
[21] = group: developmental, systemic / in life observation / body weight / fetal weight
[22] = group: maternal, systemic / in life observation / body weight / body weight gain + systemic / in life observation / clinical signs / splayed hindlimbs + …
[23] = group: cholinesterase, cholinesterase / cholinesterase / cholinesterase / cholinesterase (che)
[24] = group: systemic, systemic / clinical chemistry / alkaline phosphatase (alp/alk) / alkaline phosphatase (alp/alk) + systemic / hematology / erythrocyte (rbc) …
[25] = group: parental, systemic / in life observation / body weight / body weight + systemic / organ weight / adrenal gland / absolute + systemic / organ weight / …
[26] = group: reproductive, reproductive / offspring survival early / live fetuses / live fetuses

Work on `CCS(=O)(=O)c1nc2ccccn2c1S(=O)(=O)NC(=O)Nc1nc(OC)cc(OC)n1` [Sulfosulfuron] yielded an LEL (rat [1]) of 1280 mg/kg/day, an LOAEL (rat [1]) of 1280 mg/kg/day and an NEL (rat [1]) of 370 mg/kg/day. The NOAEL (rat [1]) was 370 mg/kg/day, the LEL (dog [2]; systemic / pathology microscopic / urinary bladder / calculus) was 100 mg/kg/day and the NEL (dog [2]; [17]) was 30 mg/kg/day. It also gave an NOAEL (dog [2]; [17]) of 100 mg/kg/day, an LOAEL (dog [2]; systemic / urinalysis / sediment microscopic / crystalluria) of 300 mg/kg/day and an LEL (dog [3]) of 500 mg/kg/day. For the same compound, the LOAEL (dog [3]) was 500 mg/kg/day, the NEL (dog [3]) was 100 mg/kg/day and the NOAEL (dog [3]) was 100 mg/kg/day. It also gave an LEL (rat [4]) of 244 mg/kg/day, an LOAEL (rat [4]) of 244 mg/kg/day and an NEL (rat [4]) of 24.4 mg/kg/day. For the same compound, the NOAEL (rat [4]) was 24.4 mg/kg/day, the LEL (mouse [5]) was 394 mg/kg/day and the LOAEL (mouse [5]) was 394 mg/kg/day. It also gave an NEL (mouse [5]) of 93.4 mg/kg/day and an NOAEL (mouse [5]) of 93.4 mg/kg/day.

For `Nc1c(Br)cc(Br)c2c1C(=O)c1ccccc1C2=O` [1-Amino-2,4-dibromoanthraquinone], the LEL (mouse [6]; [18]) was 500 mg/kg/day, the NEL (mouse [6]; [18]) was less than 500 mg/kg/day and the LOAEL (mouse [6]; systemic / pathology microscopic / liver / hypertrophy) was 1850 mg/kg/day. It also gave an NOAEL (mouse [6]; systemic / pathology microscopic / liver / hypertrophy + systemic / in life observation / body weight / body weight gain + systemic / in …) of 1080 mg/kg/day, an LEL (rat [7]) of 150 mg/kg/day and an LOAEL (rat [7]) of 150 mg/kg/day. For the same compound, the NEL (rat [7]) was less than 150 mg/kg/day and the NOAEL (rat [7]) was less than 150 mg/kg/day.

For `C=CC(N)=O` [Acrylamide], the LEL (rat [8]) was 7.5 mg/kg/day, the LOAEL (rat [8]) was 7.5 mg/kg/day and the NEL (rat [8]) was 2.5 mg/kg/day. It also gave an NOAEL (rat [8]) of 2.5 mg/kg/day, an LEL (rat [9]; systemic / pathology microscopic / testes / mesothelioma nos) of 0.1 mg/kg/day and an LOAEL (rat [9]; [19]) greater than 2 mg/kg/day. For the same compound, the NEL (rat [9]; [19]) was 0.01 mg/kg/day, the NOAEL (rat [9]; [19]) was no less than 2 mg/kg/day and the LEL (rat [10]) was 5 mg/kg/day. The LOAEL (rat [10]) was 5 mg/kg/day, the NEL (rat [10]) was less than 5 mg/kg/day and the NOAEL (rat [10]) was less than 5 mg/kg/day. For the same compound, the LEL (rat [11]; systemic / in life observation / body weight / offspring (pup) weight) was 1 mg/kg/day, the NEL (rat [11]; systemic / in life observation / body weight / offspring (pup) weight + developmental / developmental landmark / pinna unfolding / pinna …) was 0.5 mg/kg/day and the LOAEL (rat [11]; [20]) was greater than 10 mg/kg/day. It also gave an NOAEL (rat [11]; [20]) of no less than 10 mg/kg/day, an LEL (mouse [12]; [21]) of 45 mg/kg/day and an LOAEL (mouse [12]; [21]) greater than 45 mg/kg/day. The NEL (mouse [12]; [21]) was 15 mg/kg/day, the NOAEL (mouse [12]; [21]) was no less than 45 mg/kg/day and the LOAEL (mouse [12]; [22]) was greater than 45 mg/kg/day. The NEL (mouse [12]; [22]) was 3 mg/kg/day, the NOAEL (mouse [12]; [22]) was no less than 45 mg/kg/day and the LEL (mouse [12]; group: maternal, systemic / organ weight / uterus / nos) was 15 mg/kg/day. For the same compound, the LEL (rat [13]) was 1 mg/kg/day, the LOAEL (rat [13]) was greater than 12 mg/kg/day and the NEL (rat [13]) was less than 1 mg/kg/day. The NOAEL (rat [13]) was no less than 12 mg/kg/day, the LEL (rat [14]; [23]) was 20 mg/kg/day and the LOAEL (rat [14]; [23]) was greater than 20 mg/kg/day. It also gave an NEL (rat [14]; [23]) of 5 mg/kg/day, an NOAEL (rat [14]; [23]) of no less than 20 mg/kg/day and an LOAEL (rat [14]; [24]) greater than 20 mg/kg/day. The NOAEL (rat [14]; [24]) was no less than 20 mg/kg/day, the NEL (rat [14]; group: systemic, systemic / hematology / erythrocyte (rbc) count differential / erythrocyte (rbc) + systemic / hematology / hematocrit (hct) / hematocrit (…) was 0.2 mg/kg/day and the LEL (rat [14]; group: systemic, systemic / pathology microscopic / nerve / [other]) was 1 mg/kg/day. The LEL (rat [15]) was 25 mg/kg/day, the LOAEL (rat [15]) was greater than 25 mg/kg/day and the NEL (rat [15]) was less than 25 mg/kg/day. For the same compound, the NOAEL (rat [15]) was no less than 25 mg/kg/day, the LOAEL (mouse [16]; [25]) was greater than 7.7 mg/kg/day and the NEL (mouse [16]; [25]) was 0.86 mg/kg/day. The NOAEL (mouse [16]; [25]) was no less than 7.7 mg/kg/day, the LEL (mouse [16]; group: parental, systemic / organ weight / adrenal gland / absolute + systemic / organ weight / kidney / absolute + systemic / organ weight / liver / …) was 2.9 mg/kg/day and the LEL (mouse [16]; [26]) was 7.7 mg/kg/day. The LOAEL (mouse [16]; [26]) was greater than 7.7 mg/kg/day and the NOAEL (mouse [16]; [26]) was no less than 7.7 mg/kg/day.
